This is an account of results in patent US7026489B2, “Ketol fatty acid derivative and plant growth regulating agents” (Shiseido Company, Ltd., priority 2000, dated 2006).

The test system of experiment [1] is a broad range of plants. Particulars: alone or in combination with norepinephrine; cited from earlier work.
For experiment [2], the system named is morning glory (Pharbitis nil). In words: Flower bud formation promoting activity of ketol fatty acid derivative II in morning glory (Example 6). The class given is in vivo. As to conditions: for flower bud formation promoting effect (number of flower buds per plant, % of control): sprayed at 1 μM onto cotyledons, 14 hours dark, counted on day 16, compound (4) at 1 μM and 100 μM, FIG. 6. The protocol: Seeds (9 g) of morning glory (variety name: Murasaki) were treated with concentrated sulfuric acid for 20 minutes, and then left to stand overnight under running water. Subsequently, the treated seeds were placed on wet sea sand for 24 hours, hilum side up, to thereby form roots. The seeds having roots were planted in sea sand to a depth of 1.5 cm to 2.0 cm, followed by culturing under continuous light (for approximately 5 days). The whole plants of the morning glory which had put forth leaves through the culture were transferred to a culture solution [KNO3 (250 mg), NH4NO3 (250 mg), KH2PO4 (250 mg), MgSO4.7H2O (250 mg), MnSO4.4H2O (1 mg), Fe-citrate n-hydrate (6 mg), H3BO3 (2 mg), CuSO4.5H2O (0.1 mg), ZnSO4.7H2O (0.2 mg), Na2MoO4.2H2O (0.2 mg), Ca(H2PO4)2.2H2O (250 mg)/distilled water (1,000 mL)]. While ketol fatty acid derivative (9) of the invention, which was obtained in the above Example 5, or test compounds such as Compound (4) was directly sprayed onto the cotyledons of the above morning glory plants grown in the culture system, the morning glory plants were subjected to treatment in the dark, then raised under the application of continuous light at 26° C. for 16 days. On day 16, the number of flower buds of the morning glory plants was counted (8 plants/group). The treatment in the dark was performed overnight (for 14 hours). In FIG. 6, along the X axis, (a) represents a control (a group of plants sprayed with distilled water), (b) represents a group of plants sprayed with ketol fatty acid derivative (9) (1 μM), (c) represents a group of plants sprayed with compound (4) (1 μM) and L-isoleusine (1 μM), (d) represents a group of plants sprayed with L-isoleusine (1 μM), (e) represents a group of plants sprayed with compound (4) (1 μM), and (f) represents a group of plants sprayed with compound (4) (100 μM). The Y axis represents flower bud formation promoting activity (shown as the percentage of each group to the control group (=100%) in terms of the number of flower buds per plant). […]

Experiment [3] deals with morning glory (Pharbitis nil). In words: Flower bud formation promoting activity of compounds (4) and (5) in morning glory (Example 2). The format is in vivo. As to conditions: sprayed onto cotyledons, 14 hours dark, counted on day 14; FIG. 3. The protocol: Seeds (9 g) of morning glory (variety name: Murasaki) were treated with concentrated sulfuric acid for 20 minutes, and then left to stand overnight under running water. Subsequently, the treated seeds were placed on wet sea sand for 24 hours, hilum side up, to thereby form roots. The seeds having roots were planted in sea sand to a depth of 1.5 cm to 2.0 cm, followed by culturing under continuous light (for approximately 5 days). The whole plants of the morning glory which had put forth leaves through the culture were transferred to a culture solution [KNO3 (250 mg), NH4NO3 (250 mg), KH2PO4 (250 mg), MgSO4.7H2O (250 mg), MnSO4.4H2O (1 mg), Fe-citrate n-hydrate (6 mg), H3BO3 (2 mg), CuSO4.5H2O (0.1 mg), ZnSO4.7H2O (0.2 mg), Na2MoO4.2H2O (0.2 mg), Ca(H2PO4)2.2H2O (250 mg)/distilled water (1,000 mL)]. Compound (4) or compound (5) was sprayed onto the cotyledons of the above morning glory plants at a spray volume of 2 mL per eight plants. The morning glory plants were subjected to treatment in the dark (14 hours), then raised under the application of continuous light at 26° C. for 14 days. On day 14, the number of flower buds of the morning glory plants was counted. As a control, distilled water was sprayed onto a group of plants. Compound (4) was sprayed at a concentration of 100 μM, whereas compound (5) was sprayed at concentrations of 0.001 μM to 100 μM.

In the case of `CC/C=C\C/C=C\CC(=O)C(O)CCCCCCCC(=O)O` (centres unmarked) [compound (4), 9-hydroxy-10-oxo-12(Z),15(Z)-octadecadienoic acid], in experiment [1], the “flower bud formation promoting effect” value is reported as “exhibit flower bud formation promoting effect”.

Consider `CC/C=C\C/C=C\CC(=O)C(O)CCCCCCCC(=O)NC(C(=O)O)C(C)CC` [ketol fatty acid derivative (9), N-[9-hydroxy-10-oxo-12(Z),15(Z)-octadecadienoyl]-L-isoleucine], for which the “flower bud formation promoting effect (number of flower buds per plant, % of control)” value in experiment [2] is listed as “equal or higher flower bud formation promoting effect as compared with compound (4)”. Besides, in experiment [2] (sprayed at 0.1 to 100 μM, FIG. 7), the “optimum administration concentration for flower bud formation promoting activity” value is recorded as “approximately 1 μM”. `CC/C=C\C[C@H]1[C@H](CC(=O)[C@H](O)CCCCCCCC(=O)O)O[C@@]2(O)CC13C(=CC2=O)NC[C@H]3O` [compound (5), (9R)-11-{(2′S,8′S,10′S,11′R)-2′,8′-dihydroxy-7′-oxo-11′-[(Z)-2-pentenyl]-9′-oxa-4′-azatricyclo[6.3.1.0^1.5]dodec-5′-en-10′-yl}-9-hydroxy-10-oxoundecanoic Acid]: the “concentration exhibiting the same level of flower bud formation promoting activity as 100 μM compound (4)” value in experiment [3] came out at 0.01 µM.

In the case of `CC[C@H](C)[C@H](N)C(=O)O` [L-isoleucine, reference compound], in experiment [2], the “flower bud formation promoting effect (number of flower buds per plant, % of control)” value is “not observed”.
